Assay results from patent publication US20120156180A1, “COMPOSITIONS AND METHODS FOR THE TREATMENT OF KRABBE AND OTHER NEURODEGENERATIVE DISEASES” (The Board of Trustees of the University of Illinois, priority 2009, published 2012).
“Also recorded” adds a separate entry of the source. Square brackets hold non-standard residues; d marks the D form. Ends that are not written are not given here. pS = N[C@@H](COP(=O)(O)O)C(=O)O

What was measured:
primary cortical neurons = assay: Primary cortical neurons incubated with psychosine and control sphingolipids (neurites, MTT assay); conditions: for effect on number of neurites: embryonic primary cortical neurons, psychosine 0.1, 1 and 10 μM
Experimental: Cell cultures of cortical neurons were prepared as previously described. […] E16 pregnant females were sacrificed, the brains of the litter were collected, and the cortex was isolated. The brain was chopped, treated with 0.25% trypsin and then passed through a fire polished pipette. The cells were then plated in DMEM (Mediatech) supplemented with 10% fetal bovine serum (FBS) and, after 2 hours, the medium was changed to Neurobasal medium supplemented with B27. For cell survival, the MTT assay (Chemicon) was performed as indicated by the supplier. Briefly, 5000 cells/well were plated in a 96 well plate, and the stimuli were administered for 24 hours. At the end of the incubation time, the MTT reagent was added and, after 4 hours, the reaction was stopped and the absorbance was read at 570 nm. […] Psychosine, D-Sphingosine, and C6-Ceramide were purchased from Sigma and resuspended in ethanol to the desired concentration.
To test the hypothesis that the presence of psychosine was detrimental to the survival of these neurons, the effect of psychosine treatment on embryonic primary cortical neurons was tested. […] The cytotoxicity of psychosine was determined with the MTT assay, which directly measures mitochondrial activity (FIG. 20L).

[1] = tested on: EAE, spinal cord injury, and hypoxic injury; conditions: cited from earlier work; for prevention of axonal loss: EAE, spinal cord injury, and hypoxic injury
[2] = calcium-sensitive dye, Invitrogen; cited from earlier work
NCX1 = assay: Immunoblot of NCX1 in spinal cord extracts of flecainide-treated Twitcher mice; type: in vivo, mouse
Experimental: Tissues were isolated and either frozen for long term storage or directly homogenized in lysis buffer (1 mM PMSF, 2 mM Sodium Orthovanadate, 1 mM NaF, 20 mM Tris HCl pH 7.4, 1% Triton X100, 150 mM NaCl, 5 mM MgCl2, 300 nM Okadaic acid). Samples were then briefly sonicated on ice and spun down at 5000 rpm for 5 min to remove the debris. The amount of protein of the supernatant was then quantified with the Bradford assay (Biorad) and equal amount of proteins were loaded on a 4-12% Bis-Tris gel (Invitrogen). After protein determination, samples were diluted to the same concentration and 10-20 μg of total protein electrophoresed on 4-12% Tris-glycine Nupage (Invitrogen) gels at 80 V in MOPS-SDS running buffer. After at 80 mV the gels were transferred for 2 hour at 120 PVDF on a PVDF membrane (Biorad). The membrane was blocked in 5% milk, 1% BSA, 0.05% Tween 20 in Tris Glycine buffer (blocking solution), then probed with primary antibodies overnight at 4° C. and with the secondary horse radish peroxidase conjugated antibodies for 1 hour at room temperature. […] The membrane was washed for at least one hour after the primary and secondary antibody incubations and developed in the Enhanced Luminescence kit (Thermo Scientific). After exposure, the bands were quantified with the software imageJ and the genes of interest were normalized to the relative loading control.

Twitcher-YFPax mice = assay: Flecainide treatment of Twitcher-YFPax mice: twitching and axonopathic figures by YFP confocal microscopy; type: in vivo, mouse
Description: Bechtold et al., Brain 128:18-28 (2005). […] FIG. 23.
To examine whether protection of axons accompanied the flecainide-mediated amelioration of twitching, spinal cord tissue was collected at P30, and longitudinal sections of the ventral white matter were observed by confocal microscopy for axonal integrity, using the YFP expression as reporter.
Spinal cord and sciatic nerves were removed from treated and non-treated mice, providing tissue for regular confocal microscopy. Paraformaldehyde-fixed longitudinal 50-μm thick cryosections of spinal cord were used. Whole mount preparations of sciatic nerves were used for confocal analysis. Nerve samples were thoroughly Z-imaged for YEP excitation on a Zeiss Meta-confocal microscope. The number of fragmented or discontinued axons per area in samples from Twi-YFPax mice (treated and non-treated) were counted and the mean values compared to those from WT-YFPax controls. Plotting these numbers against postnatal days allowed a determination of when axonal damage starts and the extent of the effect of each neuroprotective treatment at any given time. Axonal integrity was determined by visualizing continuous YFP fluorescence along a single axon over several hundreds of microns, while visualization of axonal fragments, varicosities, and/or swellings were considered a sign of axonal damage.

fast axonal transport = assay: Vesicle motility assays in isolated axoplasm; type: biochemical, squid Loligo pealii; conditions: for effect on both antero and retrograde axonal transport rates: 5 μM perfused into extruded axoplasm; for effect on both modes of axonal transport: 1 μM and 5 μM psychosine perfused
Experimental: Axoplasm was extruded from giant axons of the squid Loligo pealii (Wood Hole Marine Biological Laboratory) as described previously. Szebenyi et al., Neuron 40:41-52 (2003) and Morfini et al., Nat. Neurosci. 9:907-916 (2006). Sphingolipids were diluted into X/2 buffer (175 mM potassium aspartate, 65 mM taurine, 35 mM betaine, 25 mM glycine, 10 mM HEPES, 6.5 mM MgCl2, 5 mM EGTA, 1.5 mM CaCl2 and 0.5 mM glucose, pH 7.2) supplemented with 2-5 mM ATP and 20 μl was added to perfusion chambers. Preparations were analyzed on a Zeiss Axiomat with a 100×, 1.3 n.a. objective, and DIC optics. […]. Organelle velocities were measured with a Photonics Microscopy C2117 video manipulator (Hamamatsu).
To test whether psychosine exerts a role in neurodegeneration by affecting axonal transport, an experiment was performed using axoplasms isolated from giant squid axons, an approach used to examine the effects on antero and retrograde transport rates of a variety of molecules. Morfini et al., Neuromolecular Med. 2:89-99 (2002).
Whether psychosine is a pathogenic effector capable of triggering axonal defects in the Twitcher mouse was assessed. To test psychosine effect on FAT, a model of vesicular transport based on the squid Loligo Pelai was employed. This approach has been extensively characterized to examine the effects of different pathogenic proteins. Morfini et al., Neuromolecular. Med. 2:89-99 (2002). Candidate molecules were perfused in a microchamber containing the axoplasm preparations and the average motility of MBO was measured over a period of time. This model has played a fundamental role in the discovery of kinesin-1S (Brady, Nature 317:73-75 (1985)) and the regulatory mechanisms of FAT (Morfini et al., Neuromolecular. Med. 2:89-99 (2002); Morfini et al., Embo J. 23:2235-2245 (2004); and Ratner et al., J. Neurosci. 18:7717-7726 (1998)) as well as the pathogenic mechanism of various proteins and neurotoxins (Morfini et al., Proc. Natl. Acad. Sci. USA 104:2442-2447 (2007); Morfini et al., Nat. Neurosci. 9:907-916 (2006); and Pigino et al., Proc. Natl. Acad. Sci. USA 106:5907-5912 (2009)). Furthermore, antero and retrograde modes of transport in squid axoplasm are identical to those of intact axons (Lasek and Brady, Nature 316:645-647 (1985)) and all regulatory mechanisms discovered in the squid axoplasm are identical to the mammalian neuron.
Pure preparations of extruded axoplasm isolated from the squid were perfused with different concentrations of psychosine (or related controls) and the speed of MBO was recorded over time.

PKC = conditions: cited from earlier work
PP1 = PP1 enzyme activity assay in cortical neurons incubated with psychosine; type: cell-based, mouse
Experimental: Samples were processed for quantitation of PP1 with the Molecular Probes RediPlate™ 96 EnzChek® Serine/Threonine Phosphatase Assay Kit (Molecular Probe), as described by the manufacturer. Samples were homogenized in buffer (50 mM Tris-HCl pH 7.0, containing 0.1 mM CaCl2, 125 μg/ml BSA, 0.05% Tween 20) using a IKA Ultra-Turrax T8 homogenizer. An equal amount of protein was loaded in each well of the 96-well plate and fluorescence was read at an excitation of 370 nm and an emission of 460 nm.

[3] = tested on: psychosine-mediated neurotoxicity; assay: Psychosine-mediated neurotoxicity with GSK3β inhibitor L803; conditions: no experimental details given
[4] = perfusion with control D-Sphingosine

## CCCCCCCCCCCCC/C=C/[C@@H](O)[C@H](CO)NC(=O)CCCCC [C6 ceramide, C6-Ceramide]
Primary cortical neurons
  effect on number of neurites: comparable

## O=C1NC(=O)C(c2ccccc2)(c2ccccc2)N1 [phenytoin]
[1]
  prevention of axonal loss: successfully prevented major axonal loss

## fluo-4
[2]
  Kd: 345 nM

## O=C(NCC1CCCCN1)c1cc(OCC(F)(F)F)ccc1OCC(F)(F)F (centres unmarked) [flecainide]
NCX1; early flecainide treatment (P5)
  NCX1 expression in spinal cord: reduced NCX1 expression at early (P20) and late (P30) ages; also recorded: reduced the expression of NCX1
NCX1; late flecainide treatment (P9)
  NCX1 expression in spinal cord: Reduction of NXC1 was not detected; also recorded: no differences in NCX1 expression
[1]; 30 mg/kg/day, models of demyelinating EAE
  reduction of axonal degeneration: sufficient to reduce axonal degeneration
[1]
  prevention of axonal loss: successfully prevented major axonal loss
[1]; models of acute and chronic demyelination
  sodium channel firing, sodium influx and axon protection: successful in reducing excessive firing of sodium channels, decreasing sodium influx, and protecting axons
Twitcher-YFPax mice; 30 mg/kg body weight/day from P5 or P9 until P30, at 15, 20, 25 and 30 days of age
  onset of twitching (percentage of mice twitching): delayed onset of twitching
Twitcher-YFPax mice; daily subcutaneous 30 mg/kg/day starting from P2
  protection of axons in the spinal cord: significantly protected axons in the spinal cord; also recorded: even stronger protective effect
Twitcher-YFPax mice; early treatment from P5, 30 mg/kg/day, spinal cord at P30
  reduction of number of structural pathologies (axonopathic figures per area) to motor axons: about 50%
Twitcher-YFPax mice; late treatment from P9, 30 mg/kg/day, spinal cord at P30
  frequency of axonopathic figures in the ventral spinal cord: not significantly different from that in vehicle-treated animals

## CCCCCCCCCCCCC/C=C/[C@@H](O)[C@@H](N)CO [D-Sphingosine]
Fast axonal transport; control lipid perfused
  effect on speed of anterograde or retrograde transport: did not affect the speed of anterograde or retrograde transport
Fast axonal transport; [4]
  transport rate, anterograde FAT: 1.5-2 mm/sec
  transport rate, retrograde transport: 1-1.4 mm/sec
Primary cortical neurons
  effect on number of neurites: did not exert any effect

## C[S+]([O-])c1ccc(-c2nc(-c3ccncc3)c(-c3ccc(F)cc3)[nH]2)cc1 (centres unmarked) [SB203580]
Fast axonal transport
  prevention of GM1-mediated inhibition of anterograde fast axonal transport: prevented GM1-mediated inhibition of anterograde fast axonal transport
  prevention of sphingomyelin inhibition of anterograde fast axonal transport: prevented

## C=C1[C@@H](O)[C@@H]2O[C@]3(CC[C@H](/C=C/[C@@H](C)[C@@H]4CC(C)=C[C@@]5(O[C@H](C[C@@](C)(O)C(=O)O)CC[C@H]5O)O4)O3)CC[C@H]2O[C@@H]1[C@@H](O)C[C@H](C)[C@H]1O[C@@]2(CCCCO2)CC[C@H]1C [okadaic acid]
Fast axonal transport; 200 nM okadaic acid co-perfused with 5 μM psychosine
  prevention of psychosine-induced inhibition of fast axonal transport: prevented much of the blockage of axonal transport; also recorded: prevented FAT inhibition induced by psychosine

## sphingomyelin
Fast axonal transport; 5 μM perfused
  effect on anterograde mode of fast axonal transport: inhibited the anterograde mode of fast axonal transport only
  effect on retrograde mode of fast axonal transport: did not show any effect on the retrograde mode of transport

## chondroitin sulfate
Fast axonal transport
  effect on both antero and retrograde axonal transport rates: no detectable effect

## Sulfatides
Fast axonal transport
  effect on both antero and retrograde axonal transport rates: inhibited both anterograde and retrograde modes of fast axonal transport

## CCCCCCCCCCCCC/C=C/[C@@H](O)[C@@H](N)CO[C@@H]1O[C@H](CO)[C@H](O)[C@H](O)[C@H]1O [psychosine, galactosylsphingosine]
Fast axonal transport
  effect on both modes of axonal transport: strong inhibition of both modes of axonal transport
  effect on both antero and retrograde axonal transport rates: rapid reduction of both antero and retrograde axonal transport rates; also recorded: strong inhibitory effect on both antero and retrograde transport
Fast axonal transport; listed as Psychosine
  effect on both modes of axonal transport: strongly inhibited both modes of FAT
PKC
  inhibition of kinases: known to inhibit kinases such as PKC
PP1; acutely purified embryonic cortical neurons incubated with psychosine
  PP1 activity: PP1 activity was induced; also recorded: dose-dependent increase in PP1 activity
PP1; cortical neurons, incubation with psychosine for 1 hour
  PP1 activity: PP1 activity increased
Primary cortical neurons
  effect on number of neurites: decrease in the number of neurites
Primary cortical neurons; primary cortical neurons, 1 μM, 24 hours
  cytotoxicity, MTT assay: toxic even at low concentrations

## KEAPPAPPQ[pS]P [L803]
[3]
  effect on psychosine-mediated neurotoxicity: decreased psychosine-mediated neurotoxicity
